Results taken from ChEMBL document CHEMBL1221216, “Chemical probes for histone-modifying enzymes” (Nat Chem Biol, 2008).

Tests used:
[1] = biological target: T1, NAD-dependent protein deacetylase sirtuin-2 (Homo sapiens, UniProt Q8IXJ6); experiment: Activation of human SirT2 protein fluorescence polarization assay
T1 sequence (Q8IXJ6 whole entry): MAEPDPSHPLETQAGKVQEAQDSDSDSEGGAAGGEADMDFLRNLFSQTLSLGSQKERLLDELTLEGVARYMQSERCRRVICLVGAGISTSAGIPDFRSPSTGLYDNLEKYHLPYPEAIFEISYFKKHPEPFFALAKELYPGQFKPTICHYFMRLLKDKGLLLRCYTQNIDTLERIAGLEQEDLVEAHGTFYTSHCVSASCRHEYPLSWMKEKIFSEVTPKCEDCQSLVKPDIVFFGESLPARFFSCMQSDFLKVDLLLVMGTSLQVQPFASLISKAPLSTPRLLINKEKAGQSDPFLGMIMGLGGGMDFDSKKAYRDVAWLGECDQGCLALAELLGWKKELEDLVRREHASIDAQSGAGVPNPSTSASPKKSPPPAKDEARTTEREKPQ

[2] = Inhibition of histone methyltransferase SU(VAR)3-9

EC50 [1]	Structure (SMILES)	IC50 [2]
160 nM	O=C(Nc1ccccc1-c1cn2c(CN3CCNCC3)csc2n1)c1cnc2ccccc2n1	
	CN1C(=O)[C@@]23C[C@]4([C@]56C[C@@]78SS[C@@](CO)(C(=O)N7[C@H]5Nc5ccccc56)N(C)C8=O)c5ccccc5N[C@@H]4N2C(=O)[C@]1(CO)SS3 [CHAETOCIN]	600 nM
